Reference: patent publication US11771636B2, “Composition for promoting hair growth comprising adiponectin-derived peptide” (JUNGJINHO EFFECT INC., priority 2018, dated 2023)

What was measured:
[1] = tested on: human hair follicles-derived dermal papilla cells; experiment: MTT cell division and activation in dermal papilla cells; type: cell-based; settings: peptide 0.5 μg/ml and 5 μg/ml, 48 hours, minoxidil 1 mM positive control
Method: (§1) Primary cultured human hair follicles-derived dermal papilla cells and outer root sheath cells were subcultured to passages 2 to 3, and then treated with minoxidil, which has been conventionally used as an agent for preventing hair loss and treating hair growth as a positive control at a concentration of 1 mM, and separately treated with the adiponectin-derived peptide of the present invention prepared in Example 1 at concentrations of 0.5 μg/ml and 5 μg/ml. After 48 hours, the activated living cells were stained with an MTT solution and compared with a negative control group, and the degree of division and activation of the cells was confirmed.

[2] = tested on: human hair follicles-derived outer root sheath cells; experiment: MTT cell division and activation in outer root sheath cells; type: cell-based; settings: peptide 0.5 μg/ml and 5 μg/ml, 48 hours, minoxidil 1 mM positive control
Method: as §1

| Substance | cell division of dermal papilla cells [1] | cell division of outer root sheath cells [2] |
| --- | --- | --- |
| GLYYF (P5 peptide from adiponectin (GLYYF)) [adiponectin-derived 5-mer peptide] | more excellent effect than minoxidil | more excellent effect than minoxidil |
| NIPGL (P10 peptide from adiponectin (NIPGL)) [adiponectin-derived 5-mer peptide] | more excellent effect than minoxidil | more excellent effect than minoxidil |
